Results from ChEMBL document CHEMBL3885861, “Open TG-GATES”.

Organism: Rattus norvegicus
Assay: Open TG-GATES - Regimen: Single
Type: toxicity, organism-based, Sprague-Dawley
Parameters: regimen Single, gender Male, age 6 weeks
Conditions: in vivo, po, 450 mg/kg, route gavage, dose level Low; for APTT / Bas / Eos / Fbg / Hb / Ht / Lym / MCH / MCHC / MCV / Mono / Neu / Plat / RBC / Ret / WBC: tissue Blood; for KIDNEY_L / KIDNEY_R / KIDNEY_TOTAL: tissue Kidney; for LIVER: tissue Liver; for ALP / ALT / AST / BUN / CRE / Ca / Cl / DBIL / GLC / IP / K / LDH / Na / PL / RALB / TBIL / TC / TG / TP / gamma-GTP: tissue Plasma

## CC(=O)Oc1ccccc1C(=O)O [ASPIRIN]
3 h
  TERMINAL_BW: 217.1 g
  APTT: 19.8 s
  Bas: 0%
  Eos: 1%
  Fbg: 230.2 mg/dL
  Hb: 13.8 g/dL
  Ht: 38.5%
  Lym: 70%
  MCH: 21.2 pg
  MCHC: 36%
  MCV: 59 fL
  Mono: 3.4%
  Neu: 24.4%
  Plat: 136.3 x10_4/uL
  RBC: 653 x10_4/ul
  Ret: 7.3%
  WBC: 89.4 x10_2/uL
  KIDNEY_L: 0.9 g
  KIDNEY_R: 0.9 g
  KIDNEY_TOTAL: 1.8 g
  LIVER: 8.7 g
  ALP: 1084 IU/L
  ALT: 45 IU/L
  AST: 85.8 IU/L
  BUN: 14.4 mg/dL
  CRE: 0.4 mg/dL
  Ca: 9 mg/dL
  Cl: 103.6 meq/L
  DBIL: 0.06 mg/dL
  GLC: 189.2 mg/dL
  IP: 8.7 mg/dL
  K: 3.3 meq/L
  LDH: 228.8 IU/L
  Na: 141.2 meq/L
  PL: 96.6 mg/dL
  RALB: 3.6 g/dL
  TBIL: 0.1 mg/dL
  TC: 60.4 mg/dL
  TG: 20.4 mg/dL
  TP: 5.7 g/dL
  gamma-GTP: 1.2 IU/L
6 h
  TERMINAL_BW: 218.6 g
  APTT: 21.5 s
  Bas: 0%
  Eos: 0.8%
  Fbg: 230.4 mg/dL
  Hb: 13.9 g/dL
  Ht: 38.2%
  Lym: 71%
  MCH: 22.2 pg
  MCHC: 36.3%
  MCV: 61.1 fL
  Mono: 3.2%
  Neu: 24%
  Plat: 124.8 x10_4/uL
  RBC: 626.8 x10_4/ul
  Ret: 8.1%
  WBC: 90.8 x10_2/uL
  KIDNEY_L: 1 g
  KIDNEY_R: 1 g
  KIDNEY_TOTAL: 2 g
  LIVER: 9 g
  ALP: 834.4 IU/L
  ALT: 34.8 IU/L
  AST: 72.6 IU/L
  BUN: 14.6 mg/dL
  CRE: 0.4 mg/dL
  Ca: 9.2 mg/dL
  Cl: 105 meq/L
  DBIL: 0.056 mg/dL
  GLC: 204 mg/dL
  IP: 7.7 mg/dL
  K: 3.4 meq/L
  LDH: 221.2 IU/L
  Na: 141 meq/L
  PL: 113.2 mg/dL
  RALB: 3.5 g/dL
  TBIL: 0.1 mg/dL
  TC: 67.8 mg/dL
  TG: 32.8 mg/dL
  TP: 5.6 g/dL
  gamma-GTP: 1 IU/L
